For 1 molecule, IC50 and Kd results are on record in patent US7446106B2, “Pyridylfurans and pyrroles as Raf kinase inhibitors” (SmithKline Beecham plc, priority 2001, dated 2008).

One assay has as its system A375P (human melanoma). Description: Methylene blue growth inhibition assay (Assay 2), A375P. Type of assay: cell-based. Conditions: 72 h, B-Raf V599E, Ras wt, 3 days, read-out: IC50 cell growth, A375P.
The test system of assay [1] is Colo201 (human colon carcinoma). Description: XTT 72 hr growth inhibition (Assay 3), Colo201. Type of assay: cell-based. Conditions: COLO 201, colorectal cancer, B-Raf status ND, Ras ND, read-out: IC50 cell viability, Colo201. The protocol: XTT 72 Hr Growth Inhibition Protocol for Mammalian Cultured Cells (Assay 3)
Human diploid foreskin fibroblasts (HFF) or human colon carcinoma (Colo 201) cells were grown in Dulbecco's modified Eagle's medium (DMEM) (kvitrogen/Life Technologies) containing 10% fetal bovine serum (FBS) and the antibiotics penicillin (100 Units/ml) and streotomycin (100 microgramnis/ml) (Invitrogen/Life Technologies). Growth was at 37° C. in humidified 5% CO2 incubators in 75 cm^2 plastic flasks. Cells were harvested using 0.25% trypsin/1 mM ethylenediaminetetraacetic acid (EDTA), resuspended in growth medium, and counted using a hemocytometer. Flat-bottomed 96-well plates were seeded with 2×10^3 cells/well in a volume of 200 ul from trypsinized exponentially growing cultures. To “blank” wells, growth medium was added with no additions. Cells were incubated overnight to permit attachment.
Next day, medium from wells that contained cells was replaced with 180 microliters of fresh medium. Appropriate dilutions of test compounds were added to the wells from stock soloutions of compound dissolved in dimethyl sulfoxide (DMSO); final DMSO concentration in all wells was 0.2%. […] Absorbance at 450 nm was then determined using a 96-well UV plate reader (Molecular Devices). Under these conditions, absorbance of untreated control cells at […] was at least 1.0 optical density unit/ml. […]

The subject of assay [2] is Colo205 (colon carcinoma). Description: Methylene blue growth inhibition assay (Assay 2), Colo205. Format: cell-based. As to conditions: Homo sapiens, COLO 205, 72 h, colorectal cancer, B-Raf V599E, Ras wt, 3 days, read-out: IC50 cell growth, Colo205.
In a further assay the test system is SKMEL3 (human melanoma). Description: Methylene blue growth inhibition assay (Assay 2), SKMEL3. As to conditions: SK-MEL3, 72 h, B-Raf V599E, Ras wt, 3 days, read-out: IC50 cell growth, SKMEL3. Format: cell-based.
The target in a further assay is B-Raf (Homo sapiens, UniProt P15056). Description: Fluorescence anisotropy kinase binding assay (Assay 1). The text has this:
The activity of compounds of formula (I) as B-Raf inhibitors may be determined by the following in vitro assay:
Fluorescence Anisoptrophy Kinase Binding Assay
The concentration of kinase enzyme should preferably be >1×Kf. The concentration of fluorescent ligand required will depend on the instrumentation used, and the fluorescent and physicochemical properties. The concentration used must be lower than the concentration of kinase enzyme, and preferably less than half the kinase enzyme concentration. A typical protocol is:
All compounds are serially diluted in DMSO, then by a one step dilution into buffer of comparison, 50 mM HEPES, […] pH7.5, 1 mM CHAPS, 10 mM MgCL2, for the assay.
B-Raf Enzyme concentration: 1 nM
Fluorescent ligand concentration: 0.5 nM
Test compound concentration: 0.5 nM-100 uM
Components incubated in 10 ul final volume in LJL HE 384 type B black microtitre plate until equilibrium reached (Over 3 h, up to 30 h)
Fluorescence anisotropy read in an LJL Acquest fluorescence reader.
Definitions: Ki=dissociation constant for inhibitor binding
• Kf=dissociation constant for fluorescent ligand binding
The fluorescent ligand is the following compound:
which is derived from 5-[2(4aminomethylphenyl)-5-pyridin-4-yl-1H-imidazolyl-4-yl]-2-chlorophenol and rhodamine green.

For the next assay, the system named is SKMEL2 (human melanoma). Description: Methylene blue growth inhibition assay (Assay 2), SKMEL2. Format: cell-based. As to conditions: SK-MEL-2, 72 h, B-Raf wt, [Q61R]N-Ras, 3 days, read-out: IC50 cell growth, SKMEL2.
The subject of assay [3] is HFF (normal human foreskin fibroblasts). Description: Methylene blue growth inhibition assay (Assay 2), HFF. Format: cell-based. As to conditions: Fibroblast, 72 h, B-Raf wt, Ras wt, 3 days, read-out: IC50 cell growth, HFF.

The structures appear in SMILES notation.

Sequence of B-Raf (P15056 whole entry): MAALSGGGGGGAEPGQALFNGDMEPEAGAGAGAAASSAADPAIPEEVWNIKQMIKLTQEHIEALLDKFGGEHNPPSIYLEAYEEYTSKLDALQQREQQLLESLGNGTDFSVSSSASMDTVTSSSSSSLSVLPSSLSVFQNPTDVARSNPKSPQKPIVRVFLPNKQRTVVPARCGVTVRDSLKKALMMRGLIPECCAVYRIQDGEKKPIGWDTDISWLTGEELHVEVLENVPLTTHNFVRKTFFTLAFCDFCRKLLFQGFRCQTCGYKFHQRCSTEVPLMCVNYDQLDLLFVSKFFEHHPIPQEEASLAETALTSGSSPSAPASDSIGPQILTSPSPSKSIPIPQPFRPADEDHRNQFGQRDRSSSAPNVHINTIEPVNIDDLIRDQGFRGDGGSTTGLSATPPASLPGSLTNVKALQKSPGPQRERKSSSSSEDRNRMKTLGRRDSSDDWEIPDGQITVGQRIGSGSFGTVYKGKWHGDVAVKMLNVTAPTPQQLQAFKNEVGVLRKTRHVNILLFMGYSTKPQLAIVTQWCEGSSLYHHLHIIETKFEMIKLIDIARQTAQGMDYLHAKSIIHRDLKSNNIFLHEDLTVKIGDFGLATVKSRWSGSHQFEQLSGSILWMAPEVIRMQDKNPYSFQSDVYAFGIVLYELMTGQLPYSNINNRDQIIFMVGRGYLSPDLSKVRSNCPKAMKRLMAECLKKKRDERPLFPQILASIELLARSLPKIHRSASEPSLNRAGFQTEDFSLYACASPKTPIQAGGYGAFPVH

With `CN(C)CCOc1ccc(-c2cc(-c3ccc(Cl)c(O)c3)c(-c3ccncc3)o2)cc1` [Example 3, 2-Chloro-5-{5-[4-(2-dimethylamino-ethoxy)-phenyl]-2-pyridin-4-yl-furan-3-yl}-phenol], the IC50 with A375P (human melanoma) is 2.3 µM; in assay [1], 4.5 µM; in assay [2], 9.4 µM; with SKMEL3 (human melanoma), 0.89 µM; in the assay with SKMEL2 (human melanoma), above 1.4 µM; in assay [3] it was above 30 µM. Further, binding on B-Raf was put at a Kd of 3 nM.
